Consider seven molecules from patent publication US6908930B2, “4-substituted 7-AZA-indolin-2-ones and their use as protein kinase inhibitors” (Sugen, Inc., priority 1999, dated 2005).

Each structure is given as a SMILES string. pIC50: −log10 of the molar value.

The target of assay [1] is T1, PDGFR (Homo sapiens, UniProt P09619).
T1 construct: expressed in transfected cells; host or cells: NIH3T3
The experiment in a line: Assay for modulation of PDGFR activity (ELISA). Format: biochemical. Particulars: read-out: bio PDGFR IC50. On the procedure:
Using the following reagents, supplies, and methods, the ability of the compounds of the invention to modulate the in vitro activity of the PDGFR can be readily determined in an enzyme-linked immunosorbent assay (ELISA).
Monoclonal anti-PDGFR antibody (28D4C10) is stored at −20° C. in 50 mL tubes prior to use.
Lysates from PDGFR-β expressing NIH3T3 cells are obtained and stored at −80° C. in 1 mL aliquots. PDGFR-β expression in eukaryotic cells is well known in the art. Lysates are prepared by the following method. Place carrier dishes in ice trays, and after cooling, remove the media and replace with ice cold PBS. Remove the PBS and repeat. […] Take up lysate with a pipettor and add to a 30 mL centrifuge tube on ice. Vortex the tubes for 30-60 seconds and then centrifuge for 10 minutes at 7000 rpm in a J-20 rotor which has been precooled to below 0° C. Recover the supernatants and combine them in a 250 mL tube and place on ice. Perform protein determination to measure the total quantity of protein per mL of solution. Aliquot the lysate into 1 mL fractions and store at −80° C.
Coat Corning 96 well ELISA plates with 0.5 μg per well 28D4C10 antibody in a volume of 100 μl PBS overnight, at 4° C. and remove unbound antibody, 28D4C10, from wells by inverting plate to remove liquid. Wash 1× with distilled H2O by filling wells. Pat the plate on a paper towel to remove excess liquid.
Add 150 μL of Blocking Buffer to each well. Incubate for 30 minutes at room temperature, with shaking and wash plate 3× with deionized water, then once with TBST. Pat plate on a paper towel to remove excess liquid and bubbles
Dilute lysate in PBS (10 mg lysate/100 μL PBS). Add 100 μL of diluted lysate to each well. Shake at room temperature for 60 min. Wash plate 3× with deionized water, then once with TBST. Pat plate on a paper towel to remove excess liquid and bubbles.
Add 80 μL Kinase Buffer to ELISA plate containing captured PDGFR.
Dilute drugs/extracts 1:10 (unless specified otherwise) in TBS+10% DMSO in 96-well polypropylene plates. (i.e., 10 μL compound+90 μL (TBS+10% DMSO)). Add 10 μL diluted drugs/extracts to ELISA plate. […] Incubate for 30 minutes while shaking at room temperature.
After 30 minutes stop reaction with addition of 10 μL of 200 mM EDTA pH 8.0 for 20 mM final in well. Wash 4× with deionized water, twice with TBST.
Incubate 30-45 minutes at room temperature, with shaking. Wash plate 3× with deionized water, then once with TBST. Pat plate on a paper towel to remove excess liquid and bubbles.
Incubate 30 minutes at room temperature with shaking. Wash plate 3× with deionized water, then once with TBST. Pat plate on a paper towel to remove excess liquid and bubbles.
Add 100 μL of ABTS/H2O2 solution to each well. Incubate 10 to 30 minutes while shaking. Remove any bubbles. If necessary stop reaction with the addition of 100 μL of 0.2M HCl per well
Read assay on Dynatech MR7000 ELISA reader.
(In general: ELISA stands for enzyme-linked immunosorbent assay.)

Assay [2] deals with T2, HER-2 (Homo sapiens, UniProt P04626).
T2 construct: expressed in mouse 3T3 (clone C7) cells; P00533 (Epidermal growth factor receptor)
T2 sequence (P04626 720-987 limits assumed): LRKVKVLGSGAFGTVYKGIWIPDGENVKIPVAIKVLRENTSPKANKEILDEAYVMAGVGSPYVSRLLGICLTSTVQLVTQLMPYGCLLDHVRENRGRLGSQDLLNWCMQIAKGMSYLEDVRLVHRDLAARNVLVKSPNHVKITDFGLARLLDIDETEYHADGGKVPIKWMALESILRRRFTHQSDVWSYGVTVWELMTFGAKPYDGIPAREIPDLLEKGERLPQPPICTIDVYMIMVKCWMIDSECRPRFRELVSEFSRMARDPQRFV
The experiment in a line: Assay for modulation of HER-2 activity in whole cells (ELISA). Particulars: EGFR/HER-2chimera/#T3-C7 cell lines, EGF stimulated; read-out: HER-2 kinase IC50. The format is cell-based. The protocol:
Using the following reagents, supplies, and method, the ability of compounds of the invention to affect the activity of HER-2 in whole cells in an ELISA format can be assigned.
EGFR/HER-2chimera/#T3-C7 cell lines are used for this assay. Choose dishes having 80-90% confluence for the experiment. Collect cells by trypsinization and centrifuge at 1000 rpm at room temperature for 5 minutes.
Resuspend cells in starve medium and count with trypan blue. Only viability above 90% is acceptable. Seed cells in starve medium at a density of 2,500 cells per well, 90 μL per well, in a 96 well microtiter plate. Incubate seeded cells in 5% CO2 at 37° C. overnight. Start the assay two days after seeding.
Samples are diluted directly into a polypropylene plate containing starve-DMEM (non-sterile is okay). This dilution will be 1:10 or greater, depending on the samples being screened. The same amount of DMSO is put into the control wells. […] are then transferred to the cell plate at a 1:10 dilution (10 μL of sample and media into 90 μL of starve media). The final DMSO concentration will be 1% or lower.
Ten samples are put into wells 2-11 of row A of the NUNC 96 well polypropylene plate. These wells contain straight starve-DMEM. For a 1:10 dilution, one would put 10 μL of drug into 90 μL of media. The rest of the wells (including the controls) will have a DMSO/media mixture. The percentage of DMSO in this mixture is determined by the first dilution factor, in this case 1:10. The DMSO concentration is therefore 10%. An equal amount of drug and media from row A is put into row B, containing DMSO and media. The same amount is then taken out and put into row C. This is repeated for all rows. These are 1:2 dilutions. All wells are then transferred to the cell plate at a 1:10 dilution (10 μL of sample and media into 90 μL of starve-DMEM. The final DMSO concentration will be 1% or lower. […]
After a 2 hour incubation with the drug, add prepared EGF ligand to cells at 50 μL per well, for a final concentration of 50 nM. Positive control wells (8) receive the same amount of EGF. […] Incubate at 37° C. for 10 minutes.
Remove drug, EGF, and DMEM by dumping in sink. Wash cells once with PBS.
Transfer HNTG* to cells, 100 μL per well. Place on ice for 5 minutes. Meanwhile, remove blocking buffer from ELISA plate and wash as described above. With a pipette tip securely fitted to a micropipettor, scrape cells from plate and homogenize cell material by repeatedly aspirating and dispensing the HNTG* lysis buffer. Transfer lysate to a coated, blocked, washed ELISA plate. Alternatively, one may use a Costar transfer cartridge to transfer lysate to the ELISA plate. Incubate, shaking, at room temperature for one hour.
Remove lysate by dumping in sink, then wash as described earlier. Transfer freshly diluted anti-phosphotyrosine (anti-Ptyr) antibody (1:3000 in TEST) to ELISA plate, 100 μL per well. Incubate, shaking, at room temperature, for 30 minutes.
Remove anti-Ptyr antibody by dumping in sink, then wash as described earlier. Transfer freshly diluted BIOSOURCE antibody to ELISA plate, (1:8000 in TEST), 100 μL per well. Incubate, shaking, at room temperature for 30 minutes.
Remove BIOSOURCE antibody by dumping in sink, then wash as described earlier. Transfer freshly prepared ABTS/H2O2 solution to ELISA plate, […]. Incubate 5-10 minutes while shaking. Remove any bubbles and if necessary, stop reaction with the addition of 100 μL of 0.2 M HCl per well.
Read assay on Dynatech MR7000 ELISA reader. Test Filter: […]; Reference Filter: […]. A preferred template for the placement of controls in this experiment is provided below: […]

T1 sequence (P09619 33-1106, species assumed): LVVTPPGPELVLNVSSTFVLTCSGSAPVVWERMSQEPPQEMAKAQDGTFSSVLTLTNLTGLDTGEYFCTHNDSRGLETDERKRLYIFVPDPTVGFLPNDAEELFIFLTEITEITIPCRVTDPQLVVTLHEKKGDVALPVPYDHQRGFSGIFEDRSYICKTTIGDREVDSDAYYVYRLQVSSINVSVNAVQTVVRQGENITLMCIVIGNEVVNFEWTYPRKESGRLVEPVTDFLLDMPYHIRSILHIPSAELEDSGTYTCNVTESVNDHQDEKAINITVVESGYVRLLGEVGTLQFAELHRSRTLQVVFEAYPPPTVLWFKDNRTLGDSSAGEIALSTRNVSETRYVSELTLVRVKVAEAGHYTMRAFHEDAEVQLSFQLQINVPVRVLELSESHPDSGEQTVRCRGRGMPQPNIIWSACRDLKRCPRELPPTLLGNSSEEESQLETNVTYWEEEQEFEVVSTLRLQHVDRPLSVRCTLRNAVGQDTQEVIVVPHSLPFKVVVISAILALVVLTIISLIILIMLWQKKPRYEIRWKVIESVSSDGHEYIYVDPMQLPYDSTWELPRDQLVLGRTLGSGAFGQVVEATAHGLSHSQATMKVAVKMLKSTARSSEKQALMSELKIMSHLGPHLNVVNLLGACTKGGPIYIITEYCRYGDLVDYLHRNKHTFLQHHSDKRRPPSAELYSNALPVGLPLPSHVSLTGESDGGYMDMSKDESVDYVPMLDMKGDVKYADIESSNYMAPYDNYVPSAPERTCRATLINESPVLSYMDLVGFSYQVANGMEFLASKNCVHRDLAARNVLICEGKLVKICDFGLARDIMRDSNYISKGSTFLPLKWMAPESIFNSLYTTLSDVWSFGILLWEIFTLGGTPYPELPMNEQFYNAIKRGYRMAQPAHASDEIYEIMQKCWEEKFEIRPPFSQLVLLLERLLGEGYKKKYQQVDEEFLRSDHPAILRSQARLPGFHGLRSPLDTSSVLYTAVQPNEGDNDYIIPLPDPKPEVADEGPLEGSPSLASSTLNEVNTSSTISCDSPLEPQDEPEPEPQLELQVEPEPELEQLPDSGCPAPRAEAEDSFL

Consider `C#Cc1cccc(Nc2ncnc3c2C(=Cc2[nH]c(C(=O)NCCN4CCOCC4)cc2C)C(=O)N3)c1` [Formula 17, 5-[4-(3-ETHYNYL-PHENYLAMINO)-6-OXO-6,7-DIHYDRO-PYRROLO[2,3-D]PYRIMIDIN-5-YLIDENEMETHYL]-4-METHYL-1H-PYRROLE-2-CARBOXYLIC ACID (2-MORPHOLIN-4-YL-ETHYL)-AMIDE], for which the pIC50 was under 4.70 in assay [1] and 7.00 in assay [2].

For the molecule `C#Cc1cccc(Nc2ncnc3c2C(=Cc2[nH]c(C)c(CCCN4CCOCC4)c2C)C(=O)N3)c1` [Formula 18], the results for the pIC50 in assay [1] and in assay [2] were 4.82 and 7.52, respectively.

Turning to `CC(C)c1cc(CCC(=O)O)c(/C=C2\C(=O)Nc3ncnc(Nc4ccc(F)c(Cl)c4)c32)[nH]1` [Formula 27], the negative logarithm of the IC50 (pIC50) in assay [1] was under 4.70; in assay [2] it was 6.19.

Consider `Cc1c(C(=O)N2CCOCC2)c[nH]c1/C=C1\C(=O)Nc2ncnc(Nc3ccc(F)c(Cl)c3)c21` [Formula 31], for which the pIC50 in assay [1] was under 4.70; in assay [2], 6.43.

As to `Cc1cc(C(=O)N2CCOCC2)[nH]c1/C=C1\C(=O)N(C)c2ncnc(Nc3ccc(F)c(Cl)c3)c21` [Formula 34], the pIC50 in assay [1] and in assay [2] was under 4.70 in each case.

Consider `Cc1cc(C(=O)N2CCN(C)CC2)[nH]c1/C=C1\C(=O)N(C)c2ncnc(Nc3ccc(F)c(Cl)c3)c21` [Formula 36], for which the pIC50 in assay [1] and in assay [2] was under 4.70 each time.

Regarding `Cc1cc(C=C2C(=O)Nc3ncnc(Nc4ccc(F)c(Cl)c4)c32)[nH]c1C(=O)N1CCOCC1` [Formula 37], the pIC50 in assay [1] is under 4.70; in assay [2] it was 5.97.

What is called pIC50 is the IC50 on a negative log10 scale, so that one unit is a factor of ten.
